target: T1, c-kit mutant D816V (Homo sapiens, UniProt P10721, D816V/DEL694-753); assay: c-Kit mutant D816V biochemical assay, AlphaScreen; conditions: c-kit D816V biochemical inhibitory activity; read-out: Biochemical activity (IC50 μM) Kit D816V
T1 construct: residues 551-934, kinase insertion domain residues 694-753 deleted; 6x-histidine (N); made in house; host or cells: E. coli Arctic Express (DE3) RIL (Stratagene)
Summary of the method: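 Eight-point, threefold compound series incubated 30 min at room temperature with E. coli-produced D816V kinase, 10 μM ATP, Mg2+/Mn2+ HEPES buffer pH 7.2 and 5% DMSO. After EDTA stop, streptavidin and anti-phosphotyrosine (PY20) AlphaScreen beads gave the read-out, and IC50 was fitted from the concentration–signal curve.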

T1 sequence (P10721 with tags, fused parts or gaps DEL694-753/D816V): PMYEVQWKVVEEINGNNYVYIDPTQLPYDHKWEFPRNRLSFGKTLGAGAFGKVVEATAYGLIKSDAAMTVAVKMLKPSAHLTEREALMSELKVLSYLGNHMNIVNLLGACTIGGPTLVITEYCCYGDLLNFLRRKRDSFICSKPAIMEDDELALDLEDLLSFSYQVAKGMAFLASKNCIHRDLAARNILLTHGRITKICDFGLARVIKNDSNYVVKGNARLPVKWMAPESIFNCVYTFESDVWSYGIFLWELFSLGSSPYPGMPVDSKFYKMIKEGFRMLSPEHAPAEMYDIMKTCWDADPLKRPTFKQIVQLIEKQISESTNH

| SMILES | IC50 |
| --- | --- |
| O=S(=O)(NC1CCN(c2ncnc3[nH]c(-c4ccc(Cl)cc4)cc23)CC1)c1cc2ccccc2s1 [P-0467, N-[1-[6-(4-chlorophenyl)-7H-pyrrolo[2,3-d]pyrimidin-4-yl]-4-piperidyl]benzothiophene-2-sulfonamide] | 1 to 10 µM |
| CC(C)Oc1ccc(S(=O)(=O)NC2CCN(c3ncnc4[nH]c(-c5ccc(Cl)cc5)cc34)CC2)cc1 [P-0468, N-[1-[6-(4-chlorophenyl)-7H-pyrrolo[2,3-d]pyrimidin-4-yl]-4-piperidyl]-4-isopropoxy-benzenesulfonamide] | 0.0001 to 1 µM |
| CN(C)S(=O)(=O)NC1CCN(c2ncnc3[nH]c(-c4cnn(C)c4)cc23)CC1 [P-0469, 4-[4-(dimethylsulfamoylamino)-1-piperidyl]-6-(1-methylpyrazol-4-yl)-7H-pyrrolo[2,3-d]pyrimidine] | 0.0001 to 1 µM |
| O=S(=O)(NC1CCN(c2ncnc3[nH]c(C#CC4CC4)cc23)CC1)c1ccc(Cl)cc1 [P-0471, 4-chloro-N-[1-[6-(2-cyclopropylethynyl)-7H-pyrrolo[2,3-d]pyrimidin-4-yl]-4-piperidyl]benzenesulfonamide] | 10 to 200 µM |
| O=S(=O)(NC1CCN(c2ncnc3[nH]c(-c4ccc(Cl)cc4)cc23)CC1)c1cccc(Cl)c1 [P-0480, 3-chloro-N-[1-[6-(4-chlorophenyl)-7H-pyrrolo[2,3-d]pyrimidin-4-yl]-4-piperidyl]benzenesulfonamide] | 1 to 10 µM |
| O=S(=O)(NC1CCN(c2ncnc3[nH]c(-c4ccc(Cl)cc4)cc23)CC1)c1ccc(F)cc1 [P-0481, N-[1-[6-(4-chlorophenyl)-7H-pyrrolo[2,3-d]pyrimidin-4-yl]-4-piperidyl]-4-fluoro-benzenesulfonamide] | 10 to 200 µM |
| Cn1cc(-c2cc3c(N4CCC(NS(=O)(=O)c5ccc(N6CCCC6=O)cc5)CC4)ncnc3[nH]2)cn1 [P-0483, N-[1-[6-(1-methylpyrazol-4-yl)-7H-pyrrolo[2,3-d]pyrimidin-4-yl]-4-piperidyl]-4-(2-oxopyrrolidin-1-yl)benzenesulfonamide] | 0.0001 to 1 µM |
| CCCn1cc(S(=O)(=O)NC2CCN(c3ncnc4[nH]c(-c5cnn(C)c5)cc34)CC2)cn1 [P-0484, N-[1-[6-(1-methylpyrazol-4-yl)-7H-pyrrolo[2,3-d]pyrimidin-4-yl]-4-piperidyl]-1-propyl-pyrazole-4-sulfonamide] | 1 to 10 µM |
| Cn1cc(-c2cc3c(N4CCC(NS(=O)(=O)c5ccc(F)cc5)CC4)ncnc3[nH]2)cn1 [P-0490, 4-fluoro-N-[1-[6-(1-methylpyrazol-4-yl)-7H-pyrrolo[2,3-d]pyrimidin-4-yl]-4-piperidyl]benzenesulfonamide] | 1 to 10 µM |
| Cn1cc(-c2cc3c(N4CCC(NS(=O)(=O)c5ccccc5OC(F)(F)F)CC4)ncnc3[nH]2)cn1 [P-0493, N-[1-[6-(1-methylpyrazol-4-yl)-7H-pyrrolo[2,3-d]pyrimidin-4-yl]-4-piperidyl]-2-(trifluoromethoxy)benzenesulfonamide] | 10 to 200 µM |
| COc1ccc(S(=O)(=O)NC2CCN(c3ncnc4[nH]c(-c5cnn(C)c5)cc34)CC2)cc1 [P-0496, 4-methoxy-N-[1-[6-(1-methylpyrazol-4-yl)-7H-pyrrolo[2,3-d]pyrimidin-4-yl]-4-piperidyl]benzenesulfonamide] | 0.0001 to 1 µM |
| Cn1cc(-c2cc3c(N4CCC(NS(=O)(=O)c5ccc(OC(F)(F)F)cc5)CC4)ncnc3[nH]2)cn1 [P-0497, N-[1-[6-(1-methylpyrazol-4-yl)-7H-pyrrolo[2,3-d]pyrimidin-4-yl]-4-piperidyl]-4-(trifluoromethoxy)benzenesulfonamide] | 1 to 10 µM |
| O=S(=O)(NC1CCN(c2ncnc3[nH]c(-c4ccc(Cl)cc4)cc23)CC1)c1cccc(OC(F)(F)F)c1 [P-0499, N-[1-[6-(4-chlorophenyl)-7H-pyrrolo[2,3-d]pyrimidin-4-yl]-4-piperidyl]-3-(trifluoromethoxy)benzenesulfonamide] | 1 to 10 µM |
| Cn1cc(-c2cc3c(N4CCC(NS(=O)(=O)c5cccc(OC(F)(F)F)c5)CC4)ncnc3[nH]2)cn1 [P-0500, N-[1-[6-(1-methylpyrazol-4-yl)-7H-pyrrolo[2,3-d]pyrimidin-4-yl]-4-piperidyl]-3-(trifluoromethoxy)benzenesulfonamide] | 10 to 200 µM |
| O=C(NCc1ccc(F)cc1)NC1CCN(c2ncnc3[nH]ccc23)CC1 [P-0509, 1-[(4-fluorophenyl)methyl]-3-[1-(7H-pyrrolo[2,3-d]pyrimidin-4-yl)-4-piperidyl]urea] | 10 to 200 µM |
| O=C(NCCc1ccc(F)cc1)NC1CCN(c2ncnc3[nH]ccc23)CC1 [P-0511, 1-[2-(4-fluorophenyl)ethyl]-3-[1-(7H-pyrrolo[2,3-d]pyrimidin-4-yl)-4-piperidyl]urea] | 10 to 200 µM |
| O=C(Nc1ccc(F)c(Cl)c1)NC1CCN(c2ncnc3[nH]ccc23)CC1 [P-0512, 1-(3-chloro-4-fluoro-phenyl)-3-[1-(7H-pyrrolo[2,3-d]pyrimidin-4-yl)-4-piperidyl]urea] | 10 to 200 µM |
| O=C(Nc1ccc(OC(F)(F)F)cc1)NC1CCN(c2ncnc3[nH]ccc23)CC1 [P-0513, 1-[1-(7H-pyrrolo[2,3-d]pyrimidin-4-yl)-4-piperidyl]-3-[4-(trifluoromethoxy)phenyl]urea] | 10 to 200 µM |

| SMILES | IC50 |
| --- | --- |
| O=C(Nc1ccc(C(F)(F)F)cc1)NC1CCN(c2ncnc3[nH]ccc23)CC1 [P-0514, 1-[1-(7H-pyrrolo[2,3-d]pyrimidin-4-yl)-4-piperidyl]-3-[4-(trifluoromethyl)phenyl]urea] | 10 to 200 µM |
| O=C(Nc1ccc(F)cc1)N1CC2CCC1CN2c1ncnc2cc(-c3ccc(F)cc3)sc12 (stereo not drawn) [P-0546, N-(4-fluorophenyl)-5-[6-(4-fluorophenyl)thieno[3,2-d]pyrimidin-4-yl]-2,5-diazabicyclo[2.2.2]octane-2-carboxamide] | 1 to 10 µM |
| COc1cccc(CNC(=O)N2CC3CCC2CN3c2ncnc3cc(-c4ccc(F)cc4)sc23)c1 (stereo not drawn) [P-0547, 5-[6-(4-fluorophenyl)thieno[3,2-d]pyrimidin-4-yl]-N-[(3-methoxyphenyl)methyl]-2,5-diazabicyclo[2.2.2]octane-2-carboxamide] | 0.0001 to 1 µM |
| COc1cccc([C@H](C)NC(=O)N2CC3CCC(C2)N3c2ncnc3cc(-c4ccc(F)cc4)sc23)c1 [P-0550, 8-[6-(4-fluorophenyl)thieno[3,2-d]pyrimidin-4-yl]-N-[(1S)-1-(3-methoxyphenyl)ethyl]-3,8-diazabicyclo[3.2.1]octane-3-carboxamide] | 1 to 10 µM |
| COc1cccc(CNC(=O)N2CC3CCC(C2)N3c2ncnc3cc(-c4ccc(F)cc4)sc23)c1 [P-0551, 8-[6-(4-fluorophenyl)thieno[3,2-d]pyrimidin-4-yl]-N-[(3-methoxyphenyl)methyl]-3,8-diazabicyclo[3.2.1]octane-3-carboxamide] | 1 to 10 µM |
| C[C@H](NC(=O)N1CCN(c2ncnc3cc(-c4ccc(F)cc4)sc23)CC1(C)C)c1cccc(F)c1 [P-0578, N-[(1S)-1-(3-fluorophenyl)ethyl]-4-[6-(4-fluorophenyl)thieno[3,2-d]pyrimidin-4-yl]-2,2-dimethyl-piperazine-1-carboxamide] | 1 to 10 µM |
| C[C@H](NC(=O)N1CCN(c2ncnc3cc(Br)sc23)CC1)c1ccc(F)cc1 [P-0597, 4-(6-bromothieno[3,2-d]pyrimidin-4-yl)-N-[(1S)-1-(4-fluorophenyl)ethyl]piperazine-1-carboxamide] | 1 to 10 µM |
| C[C@H](NC(=O)N1CCN(c2ncnc3cc(-c4ccc(F)cc4)sc23)C[C@H]1C)c1ccc(F)cc1 [P-0601, (2R)-N-[(1S)-1-(4-fluorophenyl)ethyl]-4-[6-(4-fluorophenyl)thieno[3,2-d]pyrimidin-4-yl]-2-methyl-piperazine-1-carboxamide] | 1 to 10 µM |
| O=C(NCc1ccccc1)N1CCN(c2ncnc3cc(Br)sc23)CC1 [P-0629, N-benzyl-4-(6-bromothieno[3,2-d]pyrimidin-4-yl)piperazine-1-carboxamide] | 10 to 200 µM |
| CCS(=O)(=O)Nc1ccc(-c2ncnc3cc(-c4ccc(F)cc4)sc23)cc1 [P-0630, N-[4-[6-(4-fluorophenyl)thieno[3,2-d]pyrimidin-4-yl]phenyl]ethanesulfonamide] | 1 to 10 µM |
| CC(=O)Nc1ccc(-c2ncnc3cc(-c4ccc(F)cc4)sc23)cc1 [P-0632, N-[4-[6-(4-fluorophenyl)thieno[3,2-d]pyrimidin-4-yl]phenyl]acetamide] | 10 to 200 µM |
| Nc1ccc(-c2ncnc3cc(-c4ccc(F)cc4)sc23)cc1 [P-0634, 4-[6-(4-fluorophenyl)thieno[3,2-d]pyrimidin-4-yl]aniline] | 1 to 10 µM |
| O=S(=O)(NCc1ccccc1)c1ccc(-c2ncnc3cc(-c4ccc(F)cc4)sc23)cc1 [P-0635, N-benzyl-4-[6-(4-fluorophenyl)thieno[3,2-d]pyrimidin-4-yl]benzenesulfonamide] | 0.0001 to 1 µM |
| Cc1ccc(S(=O)(=O)Nc2ccc(-c3ncnc4cc(-c5ccc(F)cc5)sc34)cc2)cc1 [P-0636, N-[4-[6-(4-fluorophenyl)thieno[3,2-d]pyrimidin-4-yl]phenyl]-4-methyl-benzenesulfonamide] | 0.0001 to 1 µM |
| O=C(Nc1ccc(F)cc1)N1CCN(c2ncnc3ccsc23)CC1 [P-0640, N-(4-fluorophenyl)-4-thieno[3,2-d]pyrimidin-4-yl-piperazine-1-carboxamide] | 0.0001 to 1 µM |
| CCCc1ccc(S(=O)(=O)NC2CC=C(c3ncnc4[nH]c(C)cc34)CC2)cc1 (stereo not drawn) [P-0651, N-[4-(6-methyl-7H-pyrrolo[2,3-d]pyrimidin-4-yl)cyclohex-3-en-1-yl]-4-propyl-benzenesulfonamide] | 0.0001 to 1 µM |
| Cc1cc2c(C3=CCC(NS(=O)(=O)c4ccc(OC(C)C)cc4)CC3)ncnc2[nH]1 (stereo not drawn) [P-0652, 4-isopropoxy-N-[4-(6-methyl-7H-pyrrolo[2,3-d]pyrimidin-4-yl)cyclohex-3-en-1-yl]benzenesulfonamide] | 1 to 10 µM |
| Cc1cc2c(C3=CCC(NS(=O)(=O)c4ccc(OC(F)F)cc4)CC3)ncnc2[nH]1 (stereo not drawn) [P-0653, 4-(difluoromethoxy)-N-[4-(6-methyl-7H-pyrrolo[2,3-d]pyrimidin-4-yl)cyclohex-3-en-1-yl]benzenesulfonamide] | 1 to 10 µM |
